The source of these data is PubChem BioAssay AID602380 (Sanford-Burnham Center for Chemical Genomics, 2012).

The source made the active and inactive calls. The rule behind the calls is not given here.

The nature of the assay: TIM10 isogenic strain growth inhibitors – luminescence, S. cerevisiae, counter-screen for tim23-1 inhibitor project, SAR follow-up (AID 602380). To be noted: S. cerevisiae TIM10 isogenic control strain, BacTiter-Glo growth luminescence.

As for `CCCCOc1ccc(C(=O)O/N=C(\N)c2cccc(Br)c2)cc1`, the IC50 was 20.8 µM. As for `N#Cc1c(-c2ccc([N+](=O)[O-])cc2)cc(-c2ccccc2)nc1N`, the IC50 is > 99 µM (inactive).

Take `Nc1cccc(Oc2ccc(Oc3cccc(N)c3)cc2)c1`: the IC50 is > 99 µM (inactive). The same measure for `Cc1ccc2nc(N3C(=O)CNC3=S)sc2c1`: 6.81 µM. Under `Cc1nc2scc(C)n2c(=O)c1S(=O)(=O)Nc1ccc(N2CCN(C(=O)C(C)C)CC2)cc1` stands > 99 µM (inactive). The same measure for `Cc1ccc(S(=O)(=O)Cc2cc(=O)n3ccccc3n2)nc1`: > 99 µM (inactive). With `O=C(Nc1nc2ccccc2s1)C1CCCN1S(=O)(=O)c1ccc(Cl)cc1` (centres undefined), the IC50 is 6.26 µM. Under `CC(C)Cn1cnc2c(c(-c3ccccc3)c(-c3ccccc3)n2Cc2ccco2)c1=N` stands 34.3 µM. `N#C/C(=C\c1ccc(Cl)cc1)C(=O)Nc1cccnc1`: the concentration for half-maximal inhibition (IC50) was 14.2 µM. The same measure for `O=C1OC(c2ccccc2)=N/C1=C\C=C\c1ccco1`: 6.78 µM; for `O=c1cc(CSc2ccc(S(=O)(=O)N3CCOCC3)cn2)nc2ccc(Br)cn12`: 42.9 µM; for `Cc1nc2scc(C)n2c(=O)c1S(=O)(=O)Nc1ccc(N2CCOCC2)c(Cl)c1`: > 99 µM (inactive). The same measure for `COc1ccc(/C(N)=N/OC(=O)c2ccc(C(F)(F)F)cc2)c(OC)c1`: 72.7 µM; for `Cc1nc(SCc2cc(=O)n3cc(Br)ccc3n2)c(C#N)c(C)c1C`: > 99 µM (inactive). With `COc1ccc([N+](=O)[O-])cc1NS(=O)(=O)c1c(C)nc2scc(C)n2c1=O`, the IC50 was > 99 µM (inactive).

Consider `Cc1nc2scc(C)n2c(=O)c1S(=O)(=O)Nc1ccc(N2CCOCC2)cc1`, for which the IC50 was > 99 µM (inactive). Under `CN1CCc2nc3sc(C(=O)C45CC6CC(CC(C6)C4)C5)c(N)c3cc2C1` stands 42.1 µM. Under `C=C1CCc2c([nH]c3ccc(OCC(C)C)cc23)C1=O` stands 1.59 µM. For the compound `N/C(=N\OC(=O)c1ccc(Cl)c(Cl)c1)c1cccc(CS(=O)(=O)c2ccccn2)c1`, the half-inhibitory concentration (IC50) was 15.6 µM. Under `Cc1ccc2nc(CSc3ncc(C(F)(F)F)cc3Cl)cc(=O)n2c1` stands > 99 µM (inactive); under `Cc1nc2scc(C)n2c(=O)c1S(=O)(=O)Nc1ccc(Cl)c(C(F)(F)F)c1`, 91.1 µM. The same measure for `NC(=O)C1CCN(c2nc(-c3cccnc3)nc3ccccc23)CC1`: > 99 µM (inactive); for `Cc1ccc(/C(N)=N/OC(=O)c2ccccc2)cc1F`: 1.37 µM.

Turning to `CCN(C(=O)c1cccc2ncccc12)c1c(N)n(Cc2ccccc2)c(=O)[nH]c1=O`, the IC50 is > 99 µM (inactive). Under `O=S(=O)(Nc1ccc(-c2cn3c(n2)SCC3)cc1)c1cccnc1` stands > 99 µM (inactive). Under `CCn1c(N2CCN(S(=O)(=O)c3ccc(OC)cc3)CC2)nc2ccccc21` stands 15.8 µM; under `N/C(=N\OC(=O)c1ccccc1)c1ccc(F)cc1F`, 16.7 µM; under `N/C(=N\OC(=O)c1ccc(Cl)cc1)c1ccc(-c2csnn2)cc1`, > 99 µM (inactive).

As to `Cc1nc2scc(C)n2c(=O)c1S(=O)(=O)Nc1cc(C(F)(F)F)ccc1Cl`, the IC50 was 79.2 µM. Under `COc1ccc(/C=C/C(=O)Nc2ccc3c(c2)CCC3)cc1OC` stands 11.2 µM; under `Cc1nc2scc(C)n2c(=O)c1S(=O)(=O)Nc1ccc2c(c1)OCCO2`, 80.5 µM. The same measure for `CC(C)(C)c1csc(NC(=O)c2ccc(Cl)s2)n1`: 9.68 µM. As for `Cc1c2c(n(Cc3ccco3)c1C)N=CN1CCS(=O)(=O)N=C21`, the IC50 is 48.5 µM. The same measure for `Cc1nc2scc(C)n2c(=O)c1S(=O)(=O)Nc1ccc(N2CCN(S(C)(=O)=O)CC2)cc1`: > 99 µM (inactive); for `O=C(N/N=C/C(Cl)=C\c1ccccc1)c1cccs1`: 9.48 µM; for `Cc1ccc(C2=NNC(c3ccc(Cl)cc3Cl)S2)cc1` (centres undefined): 5.15 µM.

Consider `CCN1CCc2nc3sc(C(=O)Nc4cc(Cl)ccc4OC)c(N)c3cc2C1`, for which the IC50 is > 99 µM (inactive). Under `O=C(CSc1cccc[n+]1[O-])Nc1ccccc1Oc1ccccc1` stands 0.806 µM; under `Cc1ccc(-c2cc(NC(=O)c3c(C)noc3C)nc(-c3ccccc3)c2)cc1`, > 99 µM (inactive); under `N/C(=N\OC(=O)c1ccc2ncsc2c1)c1ccc(Cl)cc1Cl`, 2.57 µM.

For the compound `N=c1c2c(-c3ccccc3)c(-c3ccccc3)n(Cc3ccco3)c2ncn1CCCN1CCOCC1`, the IC50 is > 99 µM (inactive).

Turning to `N/C(=N\OC(=O)c1cccc2ccccc12)c1ccc(Cl)cc1`, the IC50 is 0.781 µM.

Take `N/C(=N\OC(=O)c1ccc(Cl)cc1)c1cccc(CS(=O)(=O)c2ccccn2)c1`: the half-maximal inhibitory concentration (IC50) was 19.2 µM. Under `CCOc1ccc(C(=O)O/N=C(\N)c2ccc(OC)cc2)cc1OCC` stands 5.57 µM. Under `N/C(=N\OC(=O)c1ccc2ncsc2c1)c1ccccc1` stands 9.17 µM; under `CS(=O)(=O)Nc1ccc(/C(N)=N/OC(=O)c2ccccc2Cl)cc1`, 66.4 µM.

Take `O=C(CSCc1ccccc1)Nc1cc(S(=O)(=O)N2CCOCC2)ccc1Oc1ccccc1`: the IC50 was > 99 µM (inactive). For the compound `Cc1nc2scc(C)n2c(=O)c1S(=O)(=O)Nc1ccc(CN2CCCCC2)cc1`, the IC50 is > 99 µM (inactive). Under `O=C(O)c1cccnc1SCc1cc(=O)n2cc(Br)ccc2n1` stands > 99 µM (inactive); under `Cn1c(SCc2cccc(/C(N)=N/OC(=O)c3ccc(Cl)cc3)c2)nnc1C(F)(F)F`, 3.59 µM; under `CN(C(=O)c1cccc(S(C)(=O)=O)c1)c1c(N)n(Cc2ccccc2)c(=O)[nH]c1=O`, > 99 µM (inactive). Under `Cc1nn(Cc2cccc(C(=O)O/N=C(\N)c3ccc(Cl)cc3)c2)c(C)c1Br` stands 1.7 µM; under `CCCN(C(=O)c1ccc([N+](=O)[O-])c(C)c1)c1c(N)n(Cc2ccccc2)c(=O)[nH]c1=O`, > 99 µM (inactive). Take `O=C(Nc1ccn[nH]1)c1ccc(Br)cc1Cl`: the IC50 is > 99 µM (inactive). On to `CCOc1cc2ccccc2cc1C(=O)O/N=C(\N)c1ccc(Cl)cc1`, for which the 50% inhibitory concentration (IC50) was 2.42 µM. Consider `CN1CCN(c2nc(-c3cccnc3)nc3ccccc23)CC1`, for which the IC50 was > 99 µM (inactive). Under `O=C(Nc1ccc(-c2cn3ccccc3n2)cc1)c1cccs1` stands 7.93 µM. As for `Cc1cc(OCC(=O)O/N=C(\N)Cc2ccc(Cl)cc2)ccc1Br`, the IC50 is 2.1 µM. The same measure for `N#Cc1c(-c2ccccc2)cc(-c2ccc(O)cc2)nc1N`: 4.52 µM. Under `C(/C=C/c1ccccc1)=NNc1nc2ccccc2[nH]1` stands 8.98 µM; under `Cc1nc2scc(C)n2c(=O)c1S(=O)(=O)Nc1ccc(OC(F)(F)F)cc1`, 21.6 µM. Under `O=C(NN=C/C=C\c1ccco1)c1cccs1` stands 4.48 µM; under `Cc1ccc(Nc2nc(-c3cccnc3)nc3ccccc23)cc1`, 4.04 µM; under `O=C(Nc1ccc2nc(-c3ccc(Br)o3)[nH]c2c1)c1cccs1`, 30.9 µM.

Regarding `Cc1ccc2nc(N3CCN(S(=O)(=O)C4CC4)CC3)[nH]c2c1`, the IC50 was 49.4 µM. The same measure for `N/C(=N\OC(=O)c1ccc(F)cc1)c1ccc(Br)cc1`: 39.8 µM. Under `Cc1ccc(OCC(=O)O/N=C(\N)Cc2ccc(Cl)cc2)cc1` stands 20.4 µM.

On to `Cc1nc2sc(C)c(C)n2c(=O)c1S(=O)(=O)Nc1ccc(Br)cc1`, for which the IC50 was > 99 µM (inactive). Under `Cc1ccc2nc(CS(=O)(=O)c3ncccc3Cl)cc(=O)n2c1` stands > 99 µM (inactive); under `Cc1cccn2c(=O)cc(CSc3cc(C(=O)NC4CC4)c4ccccc4n3)nc12`, > 99 µM (inactive). Under `COc1cc2c(cc1OC)/C(=C/c1ccc(Cl)cc1)C(=O)OC2` stands 2.61 µM. The same measure for `O=c1cc(C(F)F)oc2c1ccc1ccccc12`: > 99 µM (inactive); for `Cc1nc2scc(C)n2c(=O)c1S(=O)(=O)Nc1ccc(Oc2ccc(Cl)cc2)cc1`: > 99 µM (inactive). Consider `N/C(=N\OC(=O)c1ccc(Cl)cc1)c1ccc(S(=O)(=O)N2CCOCC2)cc1`, for which the IC50 is 4.81 µM.

In the case of `Cc1nc2scc(C)n2c(=O)c1S(=O)(=O)Nc1cccc(C(F)(F)F)c1`, the IC50 is 35.6 µM. Under `Cc1nc2scc(C)n2c(=O)c1S(=O)(=O)Nc1ccc(F)cc1Cl` stands 68.1 µM; under `N#Cc1ccc(C2N=C(c3ccccc3)NO2)cc1` (centres undefined), > 99 µM (inactive); under `Cc1noc(C)c1S(=O)(=O)Nc1ccc(-c2cn3c(n2)SCC3)cc1`, 79.2 µM. Consider `Oc1ccc(Oc2ccc(Oc3ccc(O)cc3)cc2)cc1`, for which the concentration for half-maximal inhibition (IC50) is 5.69 µM.
